What was measured:
[1] = system: soybeans (Toliman, S40-F8); assay: Glasshouse trial, shoot length of soybeans after leaf spray; format: in vivo, soybean; conditions: for Shoot length 11 days after spray application: spray at growth stage 12
From the text: A glasshouse trial was setup to compare growth regulation effects of trinexapac-ethyl, seaweed extract, and mixtures of trinexapac-ethyl and seaweed extract at various rates, on two varieties of soybeans (Toliman, S40-F8).
Each treatment was applied as a spray to the leaves of the plant at plant growth stage 12 (trifoliolate leaf on the 2nd node unfolded).

[2] = system: soybeans (Toliman, S40-F8); assay: Glasshouse trial, Nitrogen Balance Index (Dualex) of soybeans after leaf spray; format: in vivo, soybean; conditions: for Nitrogen Balance Index 8 days after spray application: spray at growth stage 12
From the text: A glasshouse trial was setup to compare crop enhancement effects of trinexapac-ethyl, seaweed extract, and mixtures of trinexapac-ethyl and seaweed extract at various rates, on two varieties of soybeans (Toliman, S40-F8)
Each treatment was applied as a spray to the leaves of the plant at plant growth stage 12 (trifoliolate leaf on the 2nd node unfolded). Assessments of the Nitrogen Balance Index (NBI) were made 8 days after spray application using a Dualex (Force-A, Orsay Cedex) device; NBI is a measure used to estimate the nitrogen and protein status of a plant.

Winter-rye Rekrut = assay: Glasshouse trial, lodging of winter rye after leaf spray; format: in vivo; conditions: for % lodging 30 days after spray application: Winter-rye Rekrut, spray at growth stage 30
From the text: (§1) A glasshouse trial was setup to compare growth regulation effects of trinexapac-ethyl, seaweed extract, and mixtures of trinexapac-ethyl and seaweed extract at various rates, on both summer barley (Pasadena) and winter rye (Reknit).
(§2) Each treatment was applied as a spray to the leaves of the plant at plant growth stage 30 (start of stem elongation).

summer barley (Pasadena) = assay: Glasshouse trial, lodging of summer barley after leaf spray; format: in vivo; conditions: for % lodging 30 days after spray application: Summer-barley Pasadena, spray at growth stage 30
From the text: as §1, §2

[3] = Soybean var. S40-F8, treatment 1: Moddus 200 g AI/ha
[4] = Soybean var. S40-F8, treatment 2: Moddus 100 g AI/ha
[5] = Soybean var. S40-F8, treatment 3: Moddus 50 g AI/ha
[6] = Soybean var. Toliman, treatment 1: Moddus 200 g AI/ha
[7] = Soybean var. Toliman, treatment 2: Moddus 100 g AI/ha
[8] = Soybean var. Toliman, treatment 3: Moddus 50 g AI/ha
[9] = treatment 1: Moddus 100 g AI/ha
[10] = treatment 2: Moddus 200 g AI/ha

With `CCOC(=O)C1CC(=O)C(=C(O)C2CC2)C(=O)C1` (centres unmarked) [TXP, trinexapac-ethyl] as the compound, how does the “Shoot length 11 days after spray application” value (shortened to “Shoot length 11 days”) [1, 3] read?
Its value is 34.5 cm.

What about the “Shoot length 11 days” value [1, 4] of the same compound?
Its value is 39.5 cm.

What about the “Shoot length 11 days” value [1, 5] of the same compound?
Its value is 45.8 cm.

What about the “Shoot length 11 days” value [1, 6] of the same compound?
The value was 54.8 cm.

What about the “Shoot length 11 days” value [1, 7] of the same compound?
The value was 59.3 cm.

What about the “Shoot length 11 days” value [1, 8] of the same compound?
Its value is 61.3 cm.

And the “Effect on plant length, in words” value ([1]; both soybean varieties, summary of Table 5, all rates, compared to untreated control or TXP alone)?
The value was “reduces plant length compared to the control”.

What about the “Nitrogen Balance Index 8 days after spray application” value (shortened to “Nitrogen Balance Index 8 days”) [2, 3] of the same compound?
Its value is 125.5.

And the “Nitrogen Balance Index 8 days” value [2, 4]?
The value was 97.9.

What about the “Nitrogen Balance Index 8 days” value [2, 5] of the same compound?
The value was 77.1.

What about the “Nitrogen Balance Index 8 days” value [2, 6] of the same compound?
Its value is 64.2.

What about the “Nitrogen Balance Index 8 days” value [2, 7] of the same compound?
Its value is 48.7.

What about the “Nitrogen Balance Index 8 days” value [2, 8] of the same compound?
Its value is 47.9.

And the “Effect on NBI, in words” value ([2]; both soybean varieties, summary of Table 7, compared to untreated control or single components)?
Its value is “increases NBI at high rate”.

What about the “% lodging 30 days after spray application” value (“% lodging 30 days” below) (Winter-rye Rekrut; [9]) of the same compound?
The value was 6.7%.

What about the “% lodging 30 days” value (Winter-rye Rekrut; [10]) of the same compound?
Its value is 0.0%.

And the “Effect on lodging, in words” value (Winter-rye Rekrut; winter rye, summary of Table 3, all rates, compared to untreated control or TXP alone)?
The value was “reduces lodging compared to the control”.

And the “% lodging 30 days” value (summer barley (Pasadena); [9])?
The value was 10.0%.

And the “% lodging 30 days” value (summer barley (Pasadena); [10])?
Its value is 6.7%.

What about the “Effect on lodging, in words” value (summer barley (Pasadena); summer barley, summary of Table 3, all rates, compared to untreated control or TXP alone) of the same compound?
The value was “reduces lodging compared to the control”.

Reference: patent US9314031B2, “Plant growth regulation” (SYNGENTA PARTICIPATIONS AG, priority 2012, dated 2016)
